# In patent US20040152700A1, “Novel use of 2-phenyl-substituted imidazotriazinones” (priority 2001, published 2004):
# Legend:
# [1] = system: memory power of rats (object recognition); assay: Object recognition test; format: in vivo; conditions: oral 1.0, 3.0 or 10 mg/kg in Tylose immediately after first passage, second passage 24 hours later
# Description: The object recognition test is a memory test. It measures the ability of rats (and mice) to differentiate between known and unknown objects.
# The test was carried out as described (Blokland et al. NeuroReport 1998, 9, 4205-4208; Ennaceur, A., Delacour, J., Behav. Brain Res. 1988, 31, 47-59; Ennaceur, A., Meliani, K., Psychopharmacology 1992, 109, 321-330; Prickaerts, et al. Eur. J. Pharmacol. 1997, 337, 125-136).
# In a first passage, a rat is confronted with two identical objects in an otherwise empty relatively large observation arena. The rat will investigate, i.e. sniff and touch, both objects thoroughly. In a second passage, after an interval of 24 hours, the rat is again placed in the observation arena. One of the known objects is now replaced by a new, unknown object. If a rat recognizes the known object, it will especially investigate the unknown object. After 24 hours, however, a rat has normally forgotten which object it has already investigated in the first passage, and will therefore inspect both objects to the same extent. […] It will investigate the new, unknown object in more detail than the already known one. This memory power is expressed in a discrimination index. […]
# [2] = system: memory capability of mice; conditions: avoidance test; cited from earlier work
compound,measurement,setting,value
"CCCc1nc(C)c2c(=O)[nH]c(-c3cc(S(=O)(=O)N4CCN(C)CC4)ccc3OCC)nn12 [Example 1, 2-[2-ethoxy-5-(4-methyl-piperazine-1-sulphonyl)-phenyl]-5-methyl-7-propyl-3H-imidazo[5,1-f][1,2,4]triazin-4-one]",memory power in the second passage compared with the control condition,[1],improved
"CCCc1nn(C)c2c(=O)[nH]c(-c3cc(S(=O)(=O)N4CCN(C)CC4)ccc3OCC)nc12 [Sildenafil, 5-[2-ethoxy-5-(4-methylpiperazin-1-ylsulphonyl)phenyl]1,6-dihydro-1-methyl-3-propylpyrazolo[4,3-d]pyrimidin-7-one]",action on the memory capability,[2],improving action
